ChEMBL document CHEMBL1134298, “An orally active, water-soluble neurokinin-1 receptor antagonist suitable for both intravenous and oral clinical administration” (J Med Chem, 2001)

Key:
Gerbillinae [1] = experiment: Inhibition of GR-73632-induced Gerbil foot tapping after immediate pretreatment iv; format: functional; settings: read-out: ID50 (the source's name)
Substance-P receptor = Substance-P receptor (Homo sapiens, UniProt P25103); experiment: In vitro inhibition of binding of [125I]-substance P to tachykinin receptor 1
Substance-P receptor, sequence (P25103 whole entry): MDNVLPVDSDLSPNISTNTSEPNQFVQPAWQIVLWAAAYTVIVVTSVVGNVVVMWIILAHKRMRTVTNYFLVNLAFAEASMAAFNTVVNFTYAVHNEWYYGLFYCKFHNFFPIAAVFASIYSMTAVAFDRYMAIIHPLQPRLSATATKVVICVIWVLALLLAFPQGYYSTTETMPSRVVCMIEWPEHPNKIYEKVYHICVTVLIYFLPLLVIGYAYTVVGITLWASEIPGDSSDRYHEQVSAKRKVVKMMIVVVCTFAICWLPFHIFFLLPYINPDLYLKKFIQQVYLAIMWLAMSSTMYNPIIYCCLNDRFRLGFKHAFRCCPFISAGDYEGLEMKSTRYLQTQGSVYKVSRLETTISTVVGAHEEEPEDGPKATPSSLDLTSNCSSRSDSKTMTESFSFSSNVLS

Gerbillinae [2] = experiment: Inhibition of GR-73632-induced Gerbil foot tapping after 24 hr pretreatment iv; format: functional; settings: read-out: ID50 (the source's name)

Row | Structure (SMILES) | IC50 (Substance-P receptor) [nM] | ED50 (Gerbillinae [1]) [mg/kg] | ED50 (Gerbillinae [2]) [mg/kg]
1 | CNCc1nn[nH]c1CN1CCOC(O[C@H](C)c2cc(C(F)(F)F)cc(C(F)(F)F)c2)[C@@H]1c1ccc(F)cc1 (stereo not given in full) | 0.29 | 3.1 | 
2 | C[C@@H](O[C@H]1OCCN(Cc2nn[nH]c2CN)[C@H]1c1ccc(F)cc1)c1cc(C(F)(F)F)cc(C(F)(F)F)c1 | 0.25 | 5.3 | 
3 | CC(C)N(Cc1[nH]nnc1CN1CCO[C@H](O[C@H](C)c2cc(C(F)(F)F)cc(C(F)(F)F)c2)[C@@H]1c1ccc(F)cc1)C(C)C | 0.35 | 1 | 
4 | C[C@@H](O[C@H]1OCCN(Cc2n[nH]c(=O)[nH]2)[C@H]1c1ccc(F)cc1)c1cc(C(F)(F)F)cc(C(F)(F)F)c1 [APREPITANT] |  | 0.4 | 0.3

Second part, led by results:

Row | IC50 (Substance-P receptor) [nM] | Structure (SMILES) | ED50 (Gerbillinae [1]) [mg/kg] | ED50 (Gerbillinae [2]) [mg/kg]
5 | 0.19 | C[C@@H](OC1OCCN(Cc2n[nH]nc2CN2CCC2)[C@H]1c1ccc(F)cc1)c1cc(C(F)(F)F)cc(C(F)(F)F)c1 (stereo not given in full) | 0.4 | 
6 | 0.21 | C[C@@H](O[C@H]1OCCN(Cc2nn[nH]c2CN2CCCC2)[C@H]1c1ccc(F)cc1)c1cc(C(F)(F)F)cc(C(F)(F)F)c1 | 0.4 | 
7 | 0.19 | C[C@@H](OC1OCCN(Cc2n[nH]nc2CN(C)C)[C@H]1c1ccc(F)cc1)c1cc(C(F)(F)F)cc(C(F)(F)F)c1.Cl (stereo not given in full) | 0.2 | 0.3
